From patent US20250171437A1 (Agios Pharmaceuticals,Inc., priority 2022, published 2025)

Molecular target: T1, human PAH with the R408W mutation (A375 R408W cells) (Homo sapiens, UniProt P00439, R408W)
T1 construct: expressed in transfected cells
T1 sequence (P00439 1-452 R408W): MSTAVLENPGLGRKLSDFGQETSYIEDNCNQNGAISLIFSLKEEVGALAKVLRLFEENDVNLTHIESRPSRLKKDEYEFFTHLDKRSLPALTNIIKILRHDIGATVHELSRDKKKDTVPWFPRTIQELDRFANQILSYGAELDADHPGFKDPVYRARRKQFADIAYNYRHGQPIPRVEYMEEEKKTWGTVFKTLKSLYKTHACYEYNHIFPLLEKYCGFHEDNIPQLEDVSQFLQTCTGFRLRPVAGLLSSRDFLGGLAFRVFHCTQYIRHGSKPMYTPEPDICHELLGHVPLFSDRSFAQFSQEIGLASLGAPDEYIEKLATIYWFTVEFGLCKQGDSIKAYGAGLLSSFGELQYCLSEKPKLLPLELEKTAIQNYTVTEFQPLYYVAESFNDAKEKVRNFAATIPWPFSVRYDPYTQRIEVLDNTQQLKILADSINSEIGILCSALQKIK
Assay: Cell Based Phenylalanine Flux Assay
Settings: A375 R408W cells; 24 hrs with compound, then 20 μM sepiapterin and 800 μM 13C9,15N-Phenylalanine for 4 hours; 13C-Tyrosine by LC-MS; average where tested multiple times
In short: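 Phenylalanine-to-tyrosine flux is measured in A375 cells carrying stable human R408W PAH. After 24 h compound exposure, 13C9,15N-Phe (800 μM) with sepiapterin (20 μM) is supplied for 4 h and media 13C-Tyr is read by LC-MS; AC50s are binned.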

Row | Structure (SMILES) | AC50 [nM]
1 | CC(C)(O)c1nc(Br)c(C(=O)N2CCc3[nH]cnc3[C@@H]2c2nc3cc(F)ccc3o2)o1 [Example 123, (R)-(4-bromo-2-(2-hydroxypropan-2-yl)oxazol-5-yl)(4-(5-fluorobenzo[d]oxazol-2-yl)-6,7-dihydro-1H-imidazo[4,5-c]pyridin-5(4H)-yl)methanone] | 1000 to 5000
2 | CC(C)(O)c1nc(Br)c(C(=O)N2CCc3[nH]cnc3[C@H]2c2nc3cc(F)ccc3o2)o1 [Example 124, (S)-(4-bromo-2-(2-hydroxypropan-2-yl)oxazol-5-yl)(4-(5-fluorobenzo[d]oxazol-2-yl)-6,7-dihydro-1H-imidazo[4,5-c]pyridin-5(4H)-yl)methanone] | 500 to 1000
3 | Cc1ccc(-c2nnc(C(=O)N3CCc4[nH]cnc4[C@@H]3c3nc4cc(F)ccc4o3)o2)nc1 [Example 125, (R)-(4-(5-fluorobenzo[d]oxazol-2-yl)-6,7-dihydro-1H-imidazo[4,5-c]pyridin-5(4H)-yl)(5-(5-methylpyridin-2-yl)-1,3,4-oxadiazol-2-yl)methanone] | 1000 to 5000
4 | Cc1ccc(-c2nnc(C(=O)N3CCc4[nH]cnc4[C@H]3c3nc4cc(F)ccc4o3)o2)nc1 [Example 126, (S)-(4-(5-fluorobenzo[d]oxazol-2-yl)-6,7-dihydro-1H-imidazo[4,5-c]pyridin-5(4H)-yl)(5-(5-methylpyridin-2-yl)-1,3,4-oxadiazol-2-yl)methanone] | 500 to 1000
5 | Cn1nc(Cl)cc1C(=O)N1CCc2[nH]cnc2[C@H]1c1nc2cc(F)ccc2o1 [Example 127, (S)-(3-chloro-1-methyl-1H-pyrazol-5-yl)(4-(5-fluorobenzo[d]oxazol-2-yl)-6,7-dihydro-1H-imidazo[4,5-c]pyridin-5(4H)-yl)methanone] | 500 to 1000
6 | Cn1nc(Cl)cc1C(=O)N1CCc2[nH]cnc2[C@@H]1c1nc2cc(F)ccc2o1 [Example 128, (R)-(3-chloro-1-methyl-1H-pyrazol-5-yl)(4-(5-fluorobenzo[d]oxazol-2-yl)-6,7-dihydro-1H-imidazo[4,5-c]pyridin-5(4H)-yl)methanone] | 1000 to 5000
7 | CC(C)(O)c1nc(Cl)c(C(=O)N2CCc3[nH]cnc3[C@H]2c2nc3cc(F)ccc3o2)o1 [Example 129, (S)-(4-chloro-2-(2-hydroxypropan-2-yl)oxazol-5-yl)(4-(5-fluorobenzo[d]oxazol-2-yl)-6,7-dihydro-1H-imidazo[4,5-c]pyridin-5(4H)-yl)methanone] | 500 to 1000
8 | CC(C)(O)c1nc(Cl)c(C(=O)N2CCc3[nH]cnc3[C@@H]2c2nc3cc(F)ccc3o2)o1 [Example 130, (R)-(4-chloro-2-(2-hydroxypropan-2-yl)oxazol-5-yl)(4-(5-fluorobenzo[d]oxazol-2-yl)-6,7-dihydro-1H-imidazo[4,5-c]pyridin-5(4H)-yl)methanone] | ≥ 5000
9 | Cn1nccc1-c1nnc(C(=O)N2CCc3[nH]cnc3[C@H]2c2nc3cc(F)ccc3o2)o1 [Example 131, (S)-(4-(5-fluorobenzo[d]oxazol-2-yl)-6,7-dihydro-1H-imidazo[4,5-c]pyridin-5(4H)-yl)(5-(1-methyl-1H-pyrazol-5-yl)-1,3,4-oxadiazol-2-yl)methanone] | 500 to 1000
10 | Cn1nccc1-c1nnc(C(=O)N2CCc3[nH]cnc3[C@@H]2c2nc3cc(F)ccc3o2)o1 [Example 132, (R)-(4-(5-fluorobenzo[d]oxazol-2-yl)-6,7-dihydro-1H-imidazo[4,5-c]pyridin-5(4H)-yl)(5-(1-methyl-1H-pyrazol-5-yl)-1,3,4-oxadiazol-2-yl)methanone] | 1000 to 5000
11 | O=C(c1cnn2cc(N3CCN(C4CC4)CC3)ccc12)N1CCc2[nH]cnc2[C@H]1c1nc2cc(F)ccc2o1 [Example 133, (S)-(6-(4-cyclopropylpiperazin-1-yl)pyrazolo[1,5-a]pyridin-3-yl)(4-(5-fluorobenzo[d]oxazol-2-yl)-6,7-dihydro-1H-imidazo[4,5-c]pyridin-5(4H)-yl)methanone] | 500 to 1000
12 | O=C(c1cnn2cc(N3CCN(C4CC4)CC3)ccc12)N1CCc2[nH]cnc2[C@@H]1c1nc2cc(F)ccc2o1 [Example 134, (R)-(6-(4-cyclopropylpiperazin-1-yl)pyrazolo[1,5-a]pyridin-3-yl)(4-(5-fluorobenzo[d]oxazol-2-yl)-6,7-dihydro-1H-imidazo[4,5-c]pyridin-5(4H)-yl)methanone] | ≥ 5000
13 | Cc1nc([C@@H](C)O)oc1C(=O)N1CCc2[nH]cnc2[C@H]1c1nc2cc(F)ccc2o1 [Example 135, ((S)-4-(5-fluorobenzo[d]oxazol-2-yl)-6,7-dihydro-1H-imidazo[4,5-c]pyridin-5(4H)-yl)(2-((R)-1-hydroxyethyl)-4-methyloxazol-5-yl)methanone] | 1000 to 5000

Now from value to compound:

Row | AC50 [nM] | Structure (SMILES)
14 | ≥ 5000 | Cc1nc([C@@H](C)O)oc1C(=O)N1CCc2[nH]cnc2[C@@H]1c1nc2cc(F)ccc2o1 [Example 136, ((R)-4-(5-fluorobenzo[d]oxazol-2-yl)-6,7-dihydro-1H-imidazo[4,5-c]pyridin-5(4H)-yl)(2-((R)-1-hydroxyethyl)-4-methyloxazol-5-yl)methanone]
15 | ≤ 500 | Cc1ccc2oc([C@@H]3c4nc[nH]c4CCN3C(=O)c3ocnc3C(F)F)nc2c1 [Example 137, (S)-(4-(difluoromethyl)oxazol-5-yl)(4-(5-methylbenzo[d]oxazol-2-yl)-6,7-dihydro-1H-imidazo[4,5-c]pyridin-5(4H)-yl)methanone]
16 | ≤ 500 | Cc1ccc2oc([C@H]3c4nc[nH]c4CCN3C(=O)c3ocnc3C(F)F)nc2c1 [Example 138, (R)-(4-(difluoromethyl)oxazol-5-yl)(4-(5-methylbenzo[d]oxazol-2-yl)-6,7-dihydro-1H-imidazo[4,5-c]pyridin-5(4H)-yl)methanone]
17 | 500 to 1000 | CN1CCN(c2ccc3c(C(=O)N4CCc5[nH]cnc5[C@H]4c4nc5cc(F)ccc5o4)cnn3c2)CC1(C)C [Example 139, (S)-(4-(5-fluorobenzo[d]oxazol-2-yl)-6,7-dihydro-1H-imidazo[4,5-c]pyridin-5(4H)-yl)(6-(3,3,4-trimethylpiperazin-1-yl)pyrazolo[1,5-a]pyridin-3-yl)methanone]
18 | ≥ 5000 | CN1CCN(c2ccc3c(C(=O)N4CCc5[nH]cnc5[C@@H]4c4nc5cc(F)ccc5o4)cnn3c2)CC1(C)C [Example 140, (R)-(4-(5-fluorobenzo[d]oxazol-2-yl)-6,7-dihydro-1H-imidazo[4,5-c]pyridin-5(4H)-yl)(6-(3,3,4-trimethylpiperazin-1-yl)pyrazolo[1,5-a]pyridin-3-yl)methanone]
19 | 500 to 1000 | O=C(c1oc(C2(O)CC2)nc1C(F)F)N1CCc2[nH]cnc2[C@H]1c1nc2cc(F)ccc2o1 [Example 141, (S)-(4-(difluoromethyl)-2-(1-hydroxycyclopropyl)oxazol-5-yl)(4-(5-fluorobenzo[d]oxazol-2-yl)-6,7-dihydro-1H-imidazo[4,5-c]pyridin-5(4H)-yl)methanone]
20 | 1000 to 5000 | O=C(c1oc(C2(O)CC2)nc1C(F)F)N1CCc2[nH]cnc2[C@@H]1c1nc2cc(F)ccc2o1 [Example 142, (R)-(4-(difluoromethyl)-2-(1-hydroxycyclopropyl)oxazol-5-yl)(4-(5-fluorobenzo[d]oxazol-2-yl)-6,7-dihydro-1H-imidazo[4,5-c]pyridin-5(4H)-yl)methanone]
21 | ≤ 500 | O=C(c1ocnc1C(F)(F)F)N1CCc2[nH]cnc2[C@H]1c1nc2ccc(Br)cc2o1 [Example 143, (S)-(4-(6-bromobenzo[d]oxazol-2-yl)-6,7-dihydro-1H-imidazo[4,5-c]pyridin-5(4H)-yl)(4-(trifluoromethyl)oxazol-5-yl)methanone]
